Measurements: US5688771A, “Lipophilic oligopeptides with immunomodulating activity” (priority 1993, dated 1997)
Entries after “also recorded” stand apart in the source; their conditions may differ.

How the values were obtained:
[1] = tested on: murinecytomegalovirus (MCMV) (Smith strain); test: MCMV titers in tissues; type: in vivo, Swiss Webster female mice; conditions: 25 mg/kg
[2] = Toxicity controls: mortality and weight gain in uninfected mice; type: in vivo; conditions: mouse, in vivo, 25 mg/kg
Description: Groups of 5 uninfected mice were treated the same way and at the same times as described above. These animal were checked daily for survival. Their weigths were taken before the first treatment and 24 hours after the last treatment to determine drug effect on weight gain.

[3] = tested on: murinecytomegalovirus (MCMV) (Smith strain); test: Mortality in MCMV-infected mice; type: in vivo, Swiss Webster female mice; conditions: MCMV-infected mice
[4] = tested on: Total T and B cells in splenocytes; test: Splenic T and B cell enumeration by FACS; type: in vivo, C57BL/6 mice; conditions: for % Cells/Spleen ± SD, B Cells / % Cells/Spleen ± SD, T Cells: 50 mg/kg/day i.p. every other day for 4 injections, n = 5; for % Cells/Spleen ± SD, B Cells: anti-Ly5; for % Cells/Spleen ± SD, T Cells: anti-Thy 1.2; for Effect on B cell counts (in words) / Effect on T cell counts (in words): 50 mg/kg, splenocytes, Hydrochloride
From the text: Splenic cells were enumerated with the following assay. Dispersed splenocytes were reacted with fluorescein isothiocyanate-labelled murine monoclonal antibody anti-Ly5 for B cell enumeration and phycoerythrin-labelled monoclonal antibody anti-Thy 1.2 for T cell counts. The labelled cells were then enumerated with a fluorescence-activated cell sorter (FACS) (EPICS-C, Coulter Corp., Hialeah, Fla.).

[5] = tested on: antibody producing cells (SRBC antigen); test: Plaque forming assay (PFC) in spleen cells of SRBC-immunized mice; type: in vivo; conditions: for Plaque Assay, PFC relative to control (100%) / Plaque Assay, PFC per 10^6 spleen cells: mice, 10 mg/kg i.p.; for Plaque Assay, PFC per 10^6 spleen cells: five days after injections; for Immunomodulating activity (in words): plaque-forming assay, Table 1
[6] = tested on: Macrophage function (IL-1 activity in splenocytes); test: Macrophage function, IL-1 activity in splenocytes by [3H]thymidine uptake in PHA-stimulated thymocytes; conditions: for Mean CPM of Treated Thymocytes ± SD: 50 mg/kg/day i.p. every other day for 4 injections, splenocytes 24 hr after final treatment, n = 5; for Effect on macrophage function (in words): 50 mg/kg, splenocytes 24 hours after final treatment, Hydrochloride
Description: (§1) Mice were administered a 50 mg/kg dose of the immunomodulators of the invention and were subsequently sacrificed. The spleens were harvested and splenocytes isolated. Immunologic assays were conducted on those splenocytes that were taken 24 hours after final treatment. These cells were subjected to tests to determine macrophage and natural killer (NK) cell function.
Ribavarin (1-β-D-ribofuranosyl-1,2,4-triazole-carboxamide) was used in each subsequent experiment as a control.
(§2) Animals were treated with a 50 mg/kg/day dosage of one of the tested compound and were killed 24 hr after the final treatment and their spleens removed. […] Red blood cells were removed by haemolytic lysis.
Macrophage function was assessed by an interleukin-1 (IL-1) assay that utilizes responsiveness of mouse thymocytes to phytohemagglutin (PHA) which is dependent on IL-1 for its reactivity.
The cells were incubated 72 hr at 37° C. During the last 4 hr of the incubation, the cells were pulsed with [^3 H] thymidine (1 μCi/well). The cells were then harvested and [H^3 ] thymidine incorporation was determined using a direct counter.

[7] = tested on: IgM antibody against SRBC antigen; test: Enzyme immunoassay of IgM antibody in blood of SRBC-immunized mice; type: in vivo
Description: Outbred CD1 mice were immunized with 0.1% volume for volume sheep red blood cell antigen suspended in saline. The mice were injected intraperitoneally with 0.5 ml, suspension of approximately 2×10^7 cells.
The mice were injected shortly thereafter with a suspension of an immunomodulator of the invention. The immunomodulator dose was a 0.23 ml of a 1 mg/ml suspension in phosphate buffered saline. The injected dose was 10 mg/kg. The second injection was also intraperitoneal.
The mice were killed five days after injections. Blood samples were taken for analysis of immunoglobulin. The determination was made by enzyme immunoassay using an anti μ-horseradish peroxidase conjugate. The spleen was removed, transferred to a petri dish containing 2 ml of Hank's balanced salt solution and 10 mMolar Hepes buffer (HBSS-HEPES). The spleen was gently crushed by the use of forceps, and the cell suspension was filtered through cotton gauze to eliminate cellular debris. The filtered suspension was brought to volume (5 ml) by the addition of HBSS-HEPES, the cells counted, and the suspension diluted to a final concentration of 5×10^6 cells/ml.

[8] = tested on: YAC-1 tumor cells; test: Natural killer cell activity, 4 hr chromium release assay; conditions: for % Chromium Release ± SD, Effector:Target Ratio 25:1 / % Chromium Release ± SD, Effector:Target Ratio 50:1: 50 mg/kg/day i.p. every other day for 4 injections, splenocytes 24 hr after final treatment, n = 5
Description: as §1
Three week-old C57 BL/6 mice were procured and quarantined for 24 to 48 hours prior to treatment. The five oligopeptides described in tables 2, 3 and 4 were admixed with a 0.4% water solution of carboxymethylcellulose. The solutions were stored at 4° C. until use. Ribavarin (1-β-D-ribofuranosyl-1,2,4-triazole-carboxamide) was used in each subsequent experiment as a control.
as §2
Natural killer (NK) activity of murine cells was determined by testing splenic cells for their ability to lyse YAC-1 tumor cells in a conventional 4 hr chromium release assay as an indicator of NK was expressed as: % chromium release=(experimental counts per minute (cpm)-background cpm)/(maximum cpm-background cpm)

[9] = 25 mg/kg i.p. once daily for 5 days from 24 hours after virus, 21 days

| Compound | % Cells/Spleen ± SD, B Cells [4] [%] | % Cells/Spleen ± SD, T Cells [4] [%] | Effect on B cell counts (in words) [4] | Effect on T cell counts (in words) [4] | Plaque Assay, PFC relative to control (100%) ([5]; Experiment 5) [%] | Plaque Assay, PFC per 10^6 spleen cells ([5]; Experiment 5) [PFC per 10^6 spleen cells] | Immunomodulating activity (in words) [5] | Mean CPM of Treated Thymocytes ± SD [6] [CPM] | Effect on macrophage function (in words) [6] | Enzyme Immunoassay, IgM antibody relative to control (100%) ([7]; Experiment 5, 10 mg/kg i.p.) [%] | % Chromium Release ± SD, Effector:Target Ratio 25:1 [8] [%] | % Chromium Release ± SD, Effector:Target Ratio 50:1 [8] [%] | Plaque Assay, PFC relative to control (100%) ([5]; Experiment 8) [%] | Plaque Assay, PFC per 10^6 spleen cells ([5]; Experiment 8) [PFC per 10^6 spleen cells] | Enzyme Immunoassay, IgM antibody relative to control (100%) ([7]; Experiment 8, 10 mg/kg i.p.) [%] | further results |
| --- | --- | --- | --- | --- | --- | --- | --- | --- | --- | --- | --- | --- | --- | --- | --- | --- |
| Nc1nc(O)c2ncn(COC(CO)CO)c2n1 [Ganciclovir, reference compound] |  |  |  |  |  |  |  |  |  |  |  |  |  |  |  | Virus titer in Liver ([1]; Day 3): 2.6±0.2 Log10 CCID50/qram; Virus titer in Lung ([1]; Day 3): < 2.5±0.0 Log10 CCID50/qram; Virus titer in salivary gland ([1]; Day 3): 3.1±0.6 Log10 CCID50/qram; Virus titer in spleen ([1]; Day 3): 5.7±0.3 Log10 CCID50/qram; Virus titer in Liver ([1]; Day 6): 3.3±0.8 Log10 CCID50/qram; Virus titer in Lung ([1]; Day 6): 3.5±0.6 Log10 CCID50/qram; Virus titer in salivary gland ([1]; Day 6): 3.3±0.8 Log10 CCID50/qram; Virus titer in spleen ([1]; Day 6): 3.6±0.9 Log10 CCID50/qram; Survivors (%) [2]: 100%; Survivors/total [2]: 5/5; Survivors (%) [3, 9]: 100%; Survivors/total [3, 9]: 10/10; Mean day to death ([3]; 25 mg/kg i.p. once daily for 5 days, of mice that died on or before day 21): > 21 days |
| CCCCCCCCCCCCCCCCCCOC(=O)CC[C@@H](NC(=O)[C@H](C)N)C(=O)O.Cl [BCH-524, γ-Octadecyl L-Alanyl D-Glutamate Hydrochloride] | 33 ± 10.2 | 35 ± 9.6 | suppressive; also recorded: suppressed | suppressive; also recorded: suppressed | 58 | 245 ± 90 | immunosuppressors | 5491 ± 1269 | somewhat stimulatory; also recorded: macrophage stimulation | 80 | 9.8 ± 3.6 | 14.3 ± 1.9 |  |  |  | Effect on natural killer (NK) cell activity (in words) ([8]; 50 mg/kg, splenocytes 24 hours after final treatment, Hydrochloride): marginally suppressive; also recorded: marginal natural killer cell suppression |
| CCCCCCCCCCCCCCCCCCOC(=O)[C@@H](CCC(=O)O)NC(=O)[C@H](C)N.Cl [BCH-526, α-Octadecyl L-Alanyl D-Glutamate Hydrochloride] | 43 ± 1.4 | 40 ± 2.4 | increase % B cells; also recorded: increased B cell counts | suppressing T cells; also recorded: suppressed T cell counts | 77 | 325 ± 300 | immunosuppressors | 3413 ± 206 | moderately inhibitory; also recorded: moderate macrophage suppression | 82 | 12.8 ± 2.1 | 17.2 ± 3.3 |  |  |  |  |
| CCCCCCCCCCCCCCCCCCNC(=O)CC[C@@H](NC(=O)[C@H](C)N)C(N)=O.Cl [BCH-1316, L-Alanyl D-Isoglutamyl Octadecylamine Hydrochloride] |  |  |  |  |  |  | immunostimulants |  |  |  |  |  | 153 | 759 ± 252 | 186 |  |
| Octadecyl L-Alanyl D-Isoglutamyl γ-Glycine Hydrochloride [BCH-1315] |  |  |  |  |  |  | immunostimulants |  |  |  |  |  | 204 | 1012 ± 207 | 202 |  |
| CCCCCCCCCCCCCCCCCCN[C@H](C(=O)N[C@H](CCC(N)=O)C(=O)O)C(C)C.Cl [BCH 1317, Octadecyl L-Valyl D-Glutamine Hydrochloride] |  |  |  |  |  |  |  |  |  |  |  |  |  |  |  | Plaque Assay, PFC relative to control (100%) ([5]; Experiment 9): 149%; Plaque Assay, PFC per 10^6 spleen cells ([5]; Experiment 9): 750 ± 191 PFC per 10^6 spleen cells; Enzyme Immunoassay, IgM antibody relative to control (100%) ([7]; Experiment 9, 10 mg/kg i.p.): 189% |
